Results published in paper PMC10945501, “Development and In Vivo Evaluation of Small-Molecule Ligands for Positron Emission Tomography of Immune Checkpoint Modulation Targeting Programmed Cell Death 1 Ligand 1” (Journal of Medicinal Chemistry, 2024).

Tests used:
[1] = system: PD-L1^+ / PD-L1^– H358 tumors (lung adenocarcinoma); set-up: method as in PMID 37450644; settings: ex vivo autoradiography; cited from earlier work
[2] = system: PD-L1^± ES2 tumors (ovarian carcinoma); set-up: method as in PMID 37450644; settings: ex vivo autoradiography; cited from earlier work
[3] = system: CHO and CHO-hPD-L1 xenografts; experiment: Ex vivo biodistribution; type: in vivo, NSG mice
Method: Ex vivo biodistribution was assessed 30, 40, and 70 min after tracer application in NSG mice. Radioactivity was determined using a Wizard[2] γ counter. Samples were measured for 30 s, CPM-corrected for background counts, and half-life corrected to time of tracer injection. Organs were wet-weighted, and the percentage of injected dose per gram of organ was calculated (% ID/g).

[4] = Plasma protein binding (centrifugal filters); type: in vitro ADME; settings: 10 kDa centrifugal filters
Method: Plasma protein binding was assessed using 10 kDa centrifugal filters (Merck KGaA, Darmstadt, Germany). After centrifugation for 30 min at 21,380g, filtrates, and filters were measured separately in a γ counter. In addition, water was used instead of plasma to assess the nonspecific binding to filters.

[5] = system: CHO and CHO-hPD-L1 xenografts; experiment: In vivo dynamic μPET/CT imaging; settings: NSG mice, i.v.
Method: Body weight and tumor development were monitored every second day by caliper measurement. […] The animals were subjected to μPET imaging, when tumors reached a volume of at least 200 mm^3. […] There were no losses. […] The mice were placed in the μPET/CT scanner (Inveon, Siemens Medical Solution, Knoxville, USA), covering the total body, and dynamic imaging was performed for up to 60 min to follow tracer distribution. Images were recorded with frames of 4 × 2 […], and 1 × 500 s. During the whole imaging procedure, vital parameters (respiration, body temperature) were continuously monitored using a dedicated monitoring unit (bioVet; m2m imaging, Cleveland, USA) to ensure the depth of anesthesia and well-being of the animals. […] Volumes of interest (VOIs) were created semiautomatically based on fused μPET and μCT images using PMOD software (Version 3.807; Bruker, Mannheim, Germany). The tracer uptake in the VOIs is normalized to injected dose and volume and expressed as percentage injected dose per cubic centimeter (% ID/cc).

[6] = Plasma stability, human plasma; type: in vitro ADME; settings: 60 min, 37 °C
Method: (§1) Plasma stability was tested against pooled mouse plasma (Merck KGaA, Darmstadt, Germany) and pooled human plasma (Merck KGaA, Darmstadt, Germany). 25 μL of formulated radiotracer were incubated with 1250 μL of plasma at 37 °C. The amount of intact tracer (%) was determined after 0, 15, 30, and 60 min. 100 μL aliquots were quenched with the same amount of MeCN, centrifuged for 4 min at 4 °C with 21,380g, and analyzed by HPLC setup 1.

[7] = Metabolic stability in human liver microsomes; type: in vitro ADME; settings: 60 min, 37 °C
Method: Metabolic stability was tested using pooled, mixed gender, 20 donor human liver microsomes (HLM) (Corning, Corning, USA, Cat. #452161) according to the supplied protocol. In short, 15 μL of HLM (20 mg/mL), 15 μL of nicotinamide adenine dinucleotide phosphate (NADPH) regenerating system solution A (Corning, Corning, USA), 3 μL of solution B (Corning, Corning, USA), and 257 μL of a 1:10 dilution of 10× phosphate-buffered saline (PBS) concentrate (MORPHISTO, Offenbach am Main, Germany) were preincubated at 37 °C for 10 min.
Aliquots were drawn 0, 15, 30, and 60 min after the addition of 5 μL radiotracer, subsequently quenched with the same amount of MeCN, centrifuged for 4 min at 21,380g, and analyzed by HPLC setup 1 for the amount of intact tracer (%).

[8] = Plasma stability, mouse plasma; type: in vitro ADME; settings: 60 min, 37 °C
Method: as §1

PD-L1 = system: PD-L1; set-up: method as in PMID 37409670; settings: B16–F10, no control xenograft; cited from earlier work

N#Cc1c(-c2ccc([18F])cc2)csc1OCc1ccc(CN)cc1 [2-((4-(aminomethyl)benzyl)oxy)-4-(4-[^18F]fluorophenyl)thiophene-3-carbonitrile]
fold higher uptake in PD-L1^+ compared to PD-L1^– tumors [1]: 1.4 fold | difference in uptake PD-L1^+ vs PD-L1^– tumors [2]: not observed

Cc1c(COc2cc(OCc3ccnc(C#N)c3)c(CN([11CH3])CCO)cc2Cl)cccc1-c1ccc2c(c1)OCCO2 [[^11C]5c]
organ uptake (ex vivo biodistribution) ([3]; NSG mice): substantial uptake in the liver, lung, and kidneys | ex vivo uptake marked in Figure 9B ([3]; NSG mice, 30, 40 or 70 min p.i.): < 1.5 % ID/g | fraction unbound [4]: 0.011 | organ uptake (μPET) [5]: high uptake in the liver, intestine, gallbladder, and kidneys | uptake in CHO and CHO-hPD-L1 xenografts (μPET) ([5]; dynamic scan up to 60 min): < 1.2 % ID/cc | intact tracer in human plasma [6]: over 99% | intact tracer after human liver microsomes [7]: 49.3% | intact tracer in mouse plasma [8]: over 99%

Cc1c(COc2cc(OCc3cccc(OS(=O)(=O)[18F])c3)c(CNC(CO)(CO)CO)cc2Cl)cccc1-c1ccc2c(c1)OCCO2 [[^18F]LGSu-1]
PD-L1^+ tumor uptake (PD-L1): 3.3 % ID/mL
